Legend:
p-STAT3 = assay: Western blot of total cell lysate of IL-6/23-stimulated human neutrophils; assay type: cell-based; details: IL-6/23 1 h, FIG. 5A
Experimental: Neutrophils were isolated from peripheral blood of healthy donors. Peripheral blood was incubated in 3% Dextran, and neutrophils isolated by Ficoll gradient centrifugation (Fisher Scientific), with neutrophil purity determined by staining with Wright-Giemsa.
Murine or human neutrophils were suspended at a density of 10^6 cells/ml and incubated with […] of recombinant mouse or human IL-6 and 2 μg/ml IL-23 in RPMI, and the cells were maintained for 1-3 h at 37° C. in 5% CO2. Various inhibitors were used for assessing STAT3 activation. For STAT3, neutrophils were treated with either the STAT3-SH2 inhibitor, Stattic (20 μM) obtained from Tocris, or the JAK-1, 2 inhibitor, INC424, (aka Ruxolitinib; 20 μM (Selleck BioChem)). For the determination of RORγt-dependent signaling, SR1001 (20 μM; Sigma) was used, which inhibits RORγt binding to the IL-17 promoter site. All inhibitors were added to neutrophils 2 h prior to recombinant IL-6 and IL-23 stimulation.
Neutrophils collected from primed or naïve C57BL/6 mice or unstimulated murine or human neutrophils were incubated with recombinant IL-6 and IL-23 for 60 min. After this time, cells were washed in PBS and lysed in ice-cold 1× lysis buffer (Cell Signaling Technology, Beverly, Mass.). Total protein was quantified using the BCA method, denatured with 2× Laemmli buffer (Sigma) and heated to 95° C. for 5 minutes. Nuclear extracts of the cells were prepared with the Pierce nuclear extract kit per the manufacturer's directions (Pierce). Ten μg of total protein was analyzed on a 12% SDS polyacrylamide gel, and transferred to nitrocellulose. Blots were probed with the following primary antibodies: Total STAT3 (R&D), p-STAT3 (R&D), RORγt (eBioscience), TATA box binding protein (TBP (Abcam)), and β-actin (Cell Signaling Technology). HRP-conjugated secondary antibodies were used (Santa Cruz Biotechnologies), and western blots developed with Supersignal West Femto Maximum Sensitivity Substrate (Pierce).

A. fumigatus hyphae = assay: In vitro fungal killing assay (hyphal coincubation) with human neutrophils; assay type: cell-based, Aspergillus fumigatus; details: IL-6/23-stimulated, inhibitor 20 μM, FIG. 6F
Excerpt: Aspergillus strains—For cornea infections and in vitro fungal killing assays, an RFP expressing strain of A. fumigatus (Af-dsRed) was used. This strain is gpdA promoter driven to constitutively express monomeric dsRed. For subcutaneous “priming” injections, heat-killed, swollen conidia Aspergillus fumigatus strain Af-BP was used. For the Aspergillus hyphal extract used in ROS assay, A. fumigatus strain Af-BP hyphae were pulverized in liquid nitrogen, filtered through a 30 μm pre-separation filter (Miltenyi Biotec) and protein measured by the BCA method (Pierce). Aspergillus hyphal extracts (AspHE) were stored at −20° C. and used at a final concentration of 1 mg/ml.
A hyphal coincubation assay was used to study the ability of murine and human neutrophils to inhibit A. fumigatus hyphal growth as described. Briefly, 12,500 A. fumigatus dsRed expressing conidia (strain Af-dsRed) per 200 μl Sabouraud dextrose media were added to wells of black-walled 96 well plates with an optically clear bottom (CoStar 3720). After 6 h, the conidia had germinated and the hyphae became adherent to the wells, at which time the medium was removed.
Murine and human neutrophils were incubated with p-STAT3 (20 μM Stattic or 20 μM INC424) or RORγt inhibitors (20 μM SR1001) for 2 h. Then the cells were stimulated with […] of rIL-6 and 2 μg/ml of rIL-23 for 3 h, washed, and 2×10^5 bone marrow-derived murine neutrophils or 10^5 human peripheral blood neutrophils, with or without recombinant IL-17A, were added to each well with growing hyphae. RPMI media was used as positive control (unimpaired growth), and PBS was used as a negative control (no growth (data not shown)). After 16 h the wells were washed with PBS and the dsRed fungal mass was quantified in a 96-well fluorometer at 550/600 nm excitation/emission filter (Synergy HT, Biotek).

RORγt = RORγt nuclear translocation in IL-6/23-stimulated murine neutrophils (confocal imaging); assay type: cell-based, C57BL/6 mice; details: IL-6+IL-23 stimulated, inhibitor 20 μM, FIG. 4D
Excerpt: Total bone marrow-derived cells were isolated from mouse femurs and tibias by flushing with RPMI and an 18-gauge needle. Erythrocytes were lysed with 1× lysis buffer (eBioscience), and bone marrow cells were separated on a Percoll (Fisher) gradient by density centrifugation (52%, 69%, and 78%). Cells at the 69-78% interface were harvested, and neutrophil purity (>98%) confirmed by flow cytometry and Wright-Giemsa staining. Murine or human neutrophils were suspended at a density of 10^6 cells/ml and incubated with […] of recombinant mouse or human IL-6 and 2 μg/ml IL-23 in RPMI, and the cells were maintained for 1-3 h at 37° C. in 5% CO2. Various inhibitors were used for assessing STAT3 activation. […] For the determination of RORγt-dependent signaling, SR1001 (20 μM; Sigma) was used, which inhibits RORγt binding to the IL-17 promoter site. All inhibitors were added to neutrophils 2 h prior to recombinant IL-6 and IL-23 stimulation. Corneas were dissected and incubated for 1 h at 37° C. in collaganese (80 U/ml) (C0130; Sigma-Aldrich), and washed in FACS buffer (PBS+1% FBS+0.5% Sodium azide). Ten corneas were pooled and analyzed by intracellular flow cytometry. Conversely, bone marrow cells or neutrophils were collected as described above and washed in FACS buffer. […] Cells were analyzed using a C6 Accuri flow cytometer (BD). […]

Q: With O=[N+]([O-])c1ccc2c(c1)S(=O)(=O)C=C2 [Stattic] as the compound, how does the “RORγt expression (western blot)” value (p-STAT3) read?
A: not altered

Q: And the “total STAT3 expression (western blot)” value (p-STAT3)?
A: not altered

Q: What about the “p-STAT3 (western blot)” value (p-STAT3; inhibitor 20 μM) of the same compound?
A: inhibited

Q: And the fluorescent fungal mass (A. fumigatus hyphae; plus rhIL-17A)?
A: decreased fungal mass

Q: And the fluorescent fungal mass (A. fumigatus hyphae; without rhIL-17A)?
A: no increase in ROS (FIG. 6E) or decrease in fluorescent fungal mass

Q: What about the “RORγt localisation (cytoplasm vs nucleus)” value (RORγt) of the same compound?
A: only detected in the cytoplasm

— patent US9814720B2, “Compositions and methods of inhibiting IL-17 expression of neutrophils” (priority 2014, dated 2017)
